Measured values: PubChem BioAssay AID330 (DTP/NCI, 2004)
“And” between values parts separate entries of the source, which are not always exact repeats. Identical values can stand only once. Inconclusive results and toxic doses are left out. How the source made its calls: active means survival T/C of 150% or more; inactive means T/C below 125% in these data. Peptide text beside a SMILES is read from it. * marks the point of attachment. Boc = CC(C)(C)OC(=O)*

Tested on: P388 leukemia ip, CD2F1 mice, survival T/C
Experiment: NCI In Vivo Anticancer Drug Screen. Data for tumor model P388 Leukemia (intraperitoneal) in CD2F1 (CDF1) mice
Conditions: endpoint: median survival time, higher = longer survival
In short: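 Mice carrying the transplanted tumor received test compound or vehicle. Survival was recorded in each group, and the value is the treated-group measurement divided by that of the vehicle-treated control group.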

[1] = dose: 50.0 mg/kg/injection, schedule: Q01DX005 (ip), vehicle: Klucel (hydroxypropylcellulose) (HPC)
[2] = dose: 100.0 mg/kg/injection, schedule: Q01DX005 (ip), vehicle: Klucel (hydroxypropylcellulose) (HPC)
[3] = dose: 200.0 mg/kg/injection, schedule: Q01DX005 (ip), vehicle: Klucel (hydroxypropylcellulose) (HPC)
[4] = dose: 50.0 mg/kg/injection, schedule: Q01DX005 (ip), vehicle: saline with Tween-80
[5] = dose: 100.0 mg/kg/injection, schedule: Q01DX005 (ip), vehicle: saline with Tween-80
[6] = dose: 50.0 mg/kg/injection, schedule: Q01DX009 (ip), vehicle: other
[7] = dose: 100.0 mg/kg/injection, schedule: Q01DX009 (ip), vehicle: other
[8] = dose: 200.0 mg/kg/injection, schedule: Q01DX009 (ip), vehicle: other
[9] = dose: 60.0 mg/kg/injection, schedule: Q01DX005 (ip), vehicle: Klucel (hydroxypropylcellulose) (HPC)
[10] = dose: 120.0 mg/kg/injection, schedule: Q01DX005 (ip), vehicle: Klucel (hydroxypropylcellulose) (HPC)
[11] = dose: 240.0 mg/kg/injection, schedule: Q01DX005 (ip), vehicle: Klucel (hydroxypropylcellulose) (HPC)
[12] = dose: 12.5 mg/kg/injection, schedule: Q01DX005 (ip), vehicle: Klucel (hydroxypropylcellulose) (HPC)
[13] = dose: 12.5 mg/kg/injection, schedule: Q01DX009 (ip), vehicle: saline with Tween-80
[14] = dose: 25.0 mg/kg/injection, schedule: Q01DX009 (ip), vehicle: saline with Tween-80
[15] = dose: 50.0 mg/kg/injection, schedule: Q01DX009 (ip), vehicle: saline with Tween-80
[16] = dose: 100.0 mg/kg/injection, schedule: Q01DX009 (ip), vehicle: saline with Tween-80
[17] = dose: 200.0 mg/kg/injection, schedule: Q01DX009 (ip), vehicle: saline with Tween-80
[18] = dose: 50.0 mg/kg/injection, schedule: Q01DX009 (ip), vehicle: saline
[19] = dose: 200.0 mg/kg/injection, schedule: Q01DX009 (ip), vehicle: saline

Measured: T/C

COC(=O)CCC1=C(C)c2cc3[nH]c(cc4[nH]c(cc5nc(cc1n2)C(CCC(=O)OC)=C5C)c(C#N)c4C)c(C#N)c3C
inactive: [1] 104 % of control | [2] 95 % of control | [3] 100 % of control

CCCNC(=S)N/N=C(/C)c1nccc2ccccc12
inactive: dose: 100.0 mg/kg/injection, schedule: Q04DX003 (ip), vehicle: Klucel (hydroxypropylcellulose) (HPC) 108 % of control | dose: 200.0 mg/kg/injection, schedule: Q04DX003 (ip), vehicle: Klucel (hydroxypropylcellulose) (HPC) 101 % of control | dose: 400.0 mg/kg/injection, schedule: Q04DX003 (ip), vehicle: Klucel (hydroxypropylcellulose) (HPC) 99 % of control

COc1cccc(/C(C#N)=N/NC(=O)c2nc[nH]c2C)c1
inactive: dose: 1.56 mg/kg/injection, schedule: Q01DX005 (ip), vehicle: saline with Tween-80 93 % of control | dose: 3.12 mg/kg/injection, schedule: Q01DX005 (ip), vehicle: saline with Tween-80 94 % of control | dose: 6.25 mg/kg/injection, schedule: Q01DX005 (ip), vehicle: saline with Tween-80 95 % of control | dose: 12.5 mg/kg/injection, schedule: Q01DX005 (ip), vehicle: saline with Tween-80 93 % of control | [4] 86 % of control | [5] 87 % of control | dose: 200.0 mg/kg/injection, schedule: Q01DX005 (ip), vehicle: saline with Tween-80 100 % of control

Cc1ccc(S(=O)(=O)N/N=C/c2ccc(N(C)C)cc2)cc1
inactive: dose: 12.5 mg/kg/injection, schedule: Q01DX009 (ip), vehicle: other 113 % of control | dose: 25.0 mg/kg/injection, schedule: Q01DX009 (ip), vehicle: other 96 % of control | [6] 109 % of control | [7] 100 % of control | [8] 106 % of control | dose: 400.0 mg/kg/injection, schedule: Q01DX009 (ip), vehicle: other 100 % of control

COc1ccc(C(=O)C(=O)c2ccccc2)cc1
inactive: [9] 105 % of control | [10] 100 % of control | [11] 98 % of control

c1cc(-c2nc3ccc(-c4nc5ccc(C6=NCCN6)cc5[nH]4)cc3[nH]2)ccc1C1=NCCN1
inactive: dose: 6.25 mg/kg/injection, schedule: Q01DX005 (ip), vehicle: Klucel (hydroxypropylcellulose) (HPC) 100 % of control | [12] 98 % of control | [1] 88 % of control

Nn1cnc2c(nnn2Cc2ccccc2)c1=O
inactive: dose: 100.0 mg/kg/injection, schedule: Q04DX002 (ip), vehicle: saline with Tween-80 104 % of control | dose: 200.0 mg/kg/injection, schedule: Q04DX002 (ip), vehicle: saline with Tween-80 100 % of control

N#CC(C(=O)C(=O)Nc1ccc(Cl)c(Cl)c1)c1c(Cl)cccc1Cl (stereo not given)
inactive: dose: 60.0 mg/kg/injection, schedule: Q01DX005 (ip), vehicle: saline with Tween-80 102 % of control | dose: 120.0 mg/kg/injection, schedule: Q01DX005 (ip), vehicle: saline with Tween-80 97 % of control | dose: 240.0 mg/kg/injection, schedule: Q01DX005 (ip), vehicle: saline with Tween-80 89 % of control

Nc1[nH]c(=O)ncc1C(=O)NC(CO)C(=O)O (stereo not given)
inactive: dose: 6.25 mg/kg/injection, schedule: Q01DX009 (ip), vehicle: saline with Tween-80 90 % of control | [13] 100 % of control | [14] 95 % of control

O=C(O)CN(CC(=O)O)Cc1cc2c(cc1O)Oc1cc(O)c(CN(CC(=O)O)CC(=O)O)cc1C21OC(=O)c2ccccc21
inactive: [15] 105 % of control | [16] 101 % of control | [17] 97 % of control

OC(CCCCl)CC(O)(C(F)(F)F)C(F)(F)F (stereo not given)
inactive: [15] 110 % of control | [16] 110 % of control | [17] 110 % of control

C=CCc1cn(C2CC(OC(=O)c3ccc(Cl)cc3)C(COC(=O)c3ccc(Cl)cc3)O2)c(=O)[nH]c1=O (stereo not given)
inactive: [1] 98 % of control | [2] 98 % of control | [3] 91 % of control

Cc1nc(N)c2[nH]cnc2n1
inactive: [1] 99 % of control | [2] 100 % of control | [3] 99 % of control

C=CCCCC(=O)CCCCO
inactive: [6] 95 % of control | [7] 107 % of control | [8] 101 % of control

CCc1ccc(-n2c(C)nc3[nH]cc(C)c3c2=N)cc1
inactive: [12] 100 % of control | dose: 25.0 mg/kg/injection, schedule: Q01DX005 (ip), vehicle: Klucel (hydroxypropylcellulose) (HPC) 100 % of control | [1] 98 % of control and 100 % of control

COC(=O)C1CC(O)CC(C(=O)OC)O1 (stereo not given)
inactive: dose: 60.0 mg/kg/injection, schedule: Q01DX005 (ip), vehicle: saline 96 % of control | dose: 120.0 mg/kg/injection, schedule: Q01DX005 (ip), vehicle: saline 90 % of control

CCO/C=C1\N=C(C(O)(c2ccc(Cl)cc2)c2ccc(Cl)cc2)OC1=O
inactive: [9] 95 % of control | [10] 92 % of control | [11] 98 % of control

Cc1cc(OP2(=O)Nc3cccc4cccc(c34)N2)ccc1Cl
inactive: [4] 89 % of control | [5] 89 % of control

O=C1NC(=S)NNC12CCCCC2
inactive: dose: 25.0 mg/kg/injection, schedule: Q01DX009 (ip), vehicle: Klucel (hydroxypropylcellulose) (HPC) 101 % of control | dose: 50.0 mg/kg/injection, schedule: Q01DX009 (ip), vehicle: Klucel (hydroxypropylcellulose) (HPC) 101 % of control and 108 % of control | dose: 100.0 mg/kg/injection, schedule: Q01DX009 (ip), vehicle: Klucel (hydroxypropylcellulose) (HPC) 112 % of control and 97 % of control | dose: 200.0 mg/kg/injection, schedule: Q01DX009 (ip), vehicle: Klucel (hydroxypropylcellulose) (HPC) 105 % of control (2×) and 113 % of control

CCc1cccc(CC)c1N1C(=O)C2=C(SCCCS2)C1=O
inactive: [18] 98 % of control | dose: 100.0 mg/kg/injection, schedule: Q01DX009 (ip), vehicle: saline 102 % of control | [19] 107 % of control

CN(C=O)c1cc2c3c(c1)CCCN3CCC2
inactive: [13] 109 % of control | dose: 12.5 mg/kg/injection, schedule: Q04DX003 (ip), vehicle: saline with Tween-80 100 % of control | [14] 104 % of control | dose: 25.0 mg/kg/injection, schedule: Q04DX003 (ip), vehicle: saline with Tween-80 90 % of control | [15] 109 % of control | dose: 50.0 mg/kg/injection, schedule: Q04DX003 (ip), vehicle: saline with Tween-80 95 % of control

CC/C(=N\NS(=O)(=O)c1ccc(C)cc1)c1ccc(OC)c(C)c1
inactive: [15] 105 % of control | [18] 104 % of control | [16] 97 % of control | [17] 99 % of control | [19] 96 % of control

NC(=O)N/N=C/Cn1ccc(=O)[nH]c1=O
inactive: [1] 99 % of control | [2] 97 % of control | [3] 90 % of control

CCC(C)C(NC(=O)OC(C)(C)C)C(=O)NC(CCSC)C(N)=O (stereo not drawn) (Boc-Ile-Met-NH2; configuration not given here)
inactive: [1] 97 % of control | [2] 95 % of control | [3] 89 % of control

C=CC(=NC(C)(C)C)Nc1ccccc1C
inactive: dose: 0.79 mg/kg/injection, schedule: Q01DX009 (ip), vehicle: saline 99 % of control and 103 % of control and 90 % of control | dose: 1.56 mg/kg/injection, schedule: Q01DX009 (ip), vehicle: saline 101 % of control and 89 % of control | dose: 12.5 mg/kg/injection, schedule: Q01DX009 (ip), vehicle: saline 99 % of control
